One series addresses LPA1 (Rattus norvegicus, UniProt P61794). The series can be described thus: In-vivo PET imaging in bleomycin treated rat model, LPA1 target engagement (% displacement). The settings on record: bleomycin treated rats. The protocol: (§1) [^18F]-(1S,3S)-3-(((6-(5-((((4-(fluoro)butyl)(methyl)carbamoyl)oxy)methyl)-1-methyl-1H-1,2,3-triazol-4-yl)-2-methylpyridin-3-yl)oxy)cyclohexane-1-carboxylic acid was tested to confirm its properties, specificity and targeting of the LPA1 receptor in aged-matched wild type (Sprague Dawley rat, Charles River Laboratory, PA) and bleomycin-induced pulmonary fibrosis rat models. The bleomycin-induced pulmonary fibrosis rat model was generated in anesthetized rats that were administered bleomycin (2 μL/g) via oropharyngeal instillation. For oropharyngeal instillation, anesthetized rats (isoflurane, 4% in 100% 02) were placed on a slanted board/tilting workstation and bleomycin was dripped onto the vocal cords, facilitating aspiration. Rats were then returned to their cages until they fully recovered from anesthesia and were monitored daily for the duration of the experiment. In this experiment, the [^18F]-labeled LPA1 antagonist, produced as described in the above Examples, was tested for its ability to discriminate between normal lung in wild type rats and increased lung LPA1 expression in the bleomycin rat disease model. The bleomycin treated rats were used at 14 and 15 days post bleomycin treatment. […] For PET image acquisition, rats were placed in an anesthetic induction chamber and 3% isoflurane inhalant anesthesia was delivered in 100% O2 at a rate of 1-1.5 L/min. Once sedated, the rats were removed from the induction chamber and placed into a plexiglass 2-chamber holder (custom-made by BMS-Applied Biotechnology group) within the gantry of the PET system (microPET® F220™, Siemens Preclinical Solutions, Knoxville, Tenn.) where they remained for the duration of the study. Anesthesia was maintained with 1-1.5% isoflurane inhalant anesthesia delivered in 100% 02 at a rate of 2 L/min via the nose-cone. Animals were kept warm using an external standalone temperature regulating unit (M2M Imaging Corp) to prevent hypothermia during imaging. Rat respiration was continuously monitored during imaging procedures and isoflurane was adjusted dependent on depth of anesthesia. A 10-minute transmission image was first acquired using a ^57Co point source for the purpose of attenuation correction of the final PET images and confirmation of lung localization for region of interest (ROI) analysis. The scanning region was located beginning at the neck area and extending toward the hind limbs of each animal in order to place the lungs within the 7.6 cm microPET system axial field of view (FOV). Upon completion of the transmission scan, each rat received administration of between 19.5-29.7 MBq (542-803 μCi) of [^18F]-(1S,3S)-3-(((6-(5-((((4-(fluoro)butyl)(methyl) carbamoyl)oxy)methyl)-1-methyl-1H-1,2,3-triazol-4-yl)-2-methylpyridin-3-yl)oxy)cyclohexane-1-carboxylic acid tracer via tail vein catheter followed by a 2 hour dynamic PET emission scan. […] Images were reconstructed using a maximum a posteriori (MAP) algorithm with attenuation correction using the collected transmission images and corrected for radioisotope decay. The PET images were then co-registered with corresponding transmission images using anatomical landmarks (air in lung) and boundaries of the animal holder. Images were analyzed by Inveon Research Workstation (Siemens Medical Solutions USA Inc., PA). Analysis for each rat was done with regions of interest (ROIs) drawn onto each whole lung and a section of the liver using the co-registered transmission images. There were 3-4 ROIs drawn for each lung volume (left whole lung and right whole lung) as well as 3 ROIs drawn on a section of the liver. ROIs were drawn inside the whole lung to avoid spillover signal from the heart and liver. ROIs were drawn on a section of the liver using the same method. Based on quantitative values from these ROIs (nCi/cc), % injected dose/cc (% ID/g) was calculated. Radiotracer uptake was compared across lung tissues in these groups using the time periods between 60-90 minutes post radioligand injection. […]

Experiment in series [1]: as above
The settings on record: Sprague Dawley, rat, lung, intravenous, bleomycin treated rats, baseline. How it is done:
as §1

A short description of series [2]: Radio-metabolism, fraction intact post-injection. The settings on record: at the 90 minute post-injection. Type of series: in vivo.

Chain of LPA1 (P61794 whole entry): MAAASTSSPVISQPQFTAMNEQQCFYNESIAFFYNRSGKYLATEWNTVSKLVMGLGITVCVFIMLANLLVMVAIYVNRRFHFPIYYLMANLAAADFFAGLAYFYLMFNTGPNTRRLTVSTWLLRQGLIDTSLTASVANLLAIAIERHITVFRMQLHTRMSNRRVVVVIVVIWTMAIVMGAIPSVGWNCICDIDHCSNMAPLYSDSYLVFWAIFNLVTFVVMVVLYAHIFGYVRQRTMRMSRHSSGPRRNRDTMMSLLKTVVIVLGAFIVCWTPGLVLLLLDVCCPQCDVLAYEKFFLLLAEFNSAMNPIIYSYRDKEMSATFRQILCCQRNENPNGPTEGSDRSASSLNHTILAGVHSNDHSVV

By tissue uptake is commonly meant the share of the injected amount in each gram of the tissue. As to `Cc1nc(-c2nnn(C)c2COC(=O)N(C)CCCC[18F])ccc1O[C@H]1CCC[C@H](C(=O)O)C1` [Example 16], the “Baseline % ID/g in Lung, Mean” value on LPA1 (Group 1 (1 mg/kg group, n=6), listed as [^18F]-(1S,3S)-3-(6-(5-((((4-(fluoro)butyl)(methyl)carbamoyl)oxy)methyl)-1-meth, 1 mg/kg))) is recorded as 0.12 % ID/g; on LPA1 (Group 2 (3 mg/kg group, n=6), listed as [^18F]-(1S,3S)-3-(6-(5-((((4-(fluoro)butyl)(methyl)carbamoyl)oxy)methyl)-1-meth, 3 mg/kg))), 0.10 % ID/g; at LPA1 (Group 3 (10 mg/kg group, n=6), listed as [^18F]-(1S,3S)-3-(6-(5-((((4-(fluoro)butyl)(methyl)carbamoyl)oxy)methyl)-1-meth, 10 mg/kg))), 0.12 % ID/g; on LPA1 (Group 4 (30 mg/kg group, n=7), listed as [^18F]-(1S,3S)-3-(6-(5-((((4-(fluoro)butyl)(methyl)carbamoyl)oxy)methyl)-1-meth, 30 mg/kg))), 0.09 % ID/g; on LPA1 (Group 5 (100 mg/kg group, n=6), listed as [^18F]-(1S,3S)-3-(6-(5-((((4-(fluoro)butyl)(methyl)carbamoyl)oxy)methyl)-1-meth, 100 mg/kg))), 0.10 % ID/g. Besides, the tissue uptake in series [1] (1 mg/kg, Group 1 (1 mg/kg group, n=6)) amounted to 0.12 ± 0.01 %ID/g; in series [1] (3 mg/kg, Group 2 (3 mg/kg group, n=6)) it was 0.1 ± 0.01 %ID/g; in series [1] (10 mg/kg, Group 3 (10 mg/kg group, n=6)) it was 0.12 ± 0.02 %ID/g; in series [1] (30 mg/kg, Group 4 (30 mg/kg group, n=7)), 0.09 ± 0.01 %ID/g; in series [1] (100 mg/kg, Group 5 (100 mg/kg group, n=6)), 0.1 ± 0.01 %ID/g. For the same compound, the “radio-metabolism, intact” value in series [2] came out at 80%.
